Source: patent US20230233425A1, “USE OF VOLATILE COMPOSITIONS TO LIMIT OR ELIMINATE THE PERCEPTION OF MALODOR” (Firmenich SA, priority 2017, published 2023)
pIC50: −log10 of the molar value. Where a name gives a salt, the structure may show the parent alone. Read-outs that look alike come from different tables or passages of the source.

Columns and labels:
[1] = molecular target: T1, OR51E1 olfactory receptor (Homo sapiens, UniProt Q8TCB6); experiment: Butyric acid olfactory receptor antagonist cell-based dose-response vs butyric acid EC80; details: for Emax: read-out: Inhibition (%)
T1 construct: expressed in transfected cells
T1 sequence (Q8TCB6 1-318): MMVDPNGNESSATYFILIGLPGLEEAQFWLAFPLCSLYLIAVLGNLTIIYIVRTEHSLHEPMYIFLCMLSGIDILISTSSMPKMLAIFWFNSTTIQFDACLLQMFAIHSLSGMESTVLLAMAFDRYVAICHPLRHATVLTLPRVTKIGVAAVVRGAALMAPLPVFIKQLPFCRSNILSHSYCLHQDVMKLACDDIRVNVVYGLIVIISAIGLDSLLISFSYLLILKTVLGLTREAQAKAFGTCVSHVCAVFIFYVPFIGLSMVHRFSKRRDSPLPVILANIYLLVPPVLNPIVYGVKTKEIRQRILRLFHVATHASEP

[2] = tested on: geonol receptors Olfr339, Olfr1487, Olfr1A1, OR11A1, Olfr96; experiment: Antagonists of geonol receptors (Example 11); format: cell-based, mouse and human; parameters: Inhibition(%): concentration or dose not given beside the values; details: Table 18

| Compound | pIC50 ([1]; Table 20, spiro analogues) | Emax ([1]; Table 20, spiro analogues) | other results |
| --- | --- | --- | --- |
| C/C=C/C(=O)C1=C(C)CCCC1(C)C [(2E)-1-(2,6,6-trimethyl-1-cyclohexen-1-yl)-2-buten-1-one] | – | – | pIC50 ([1]; butyric acid at EC80, Table 5): 3.73 |
| CC1=CCC(CCC(C)C(C)O)C1(C)C (stereo not drawn) [3-methyl-5-(2,2,3-trimethylcyclopent-3-en-1-yl)pentan-2-ol] | – | – | pIC50 [2]: 4.54; Inhibition(%) [2]: 32% |
| CC1=CC(C)C2(CCCC(C)(C)C2=O)C1 (stereo not drawn) [2,4,9,9-tetramethylspiro[4.5]dec-2-en-10-one] | 3.96 | 63% | – |
| CC(=O)OCC1(C)C(C)C(C)C23CCC(CC12)C3 (stereo not drawn) | – | – | pIC50 ([1]; Table 21): 4.22; Inhibition(%) ([1]; Table 21): 27% |
| CCCOC(C)OCCc1ccccc1 (stereo not drawn) [2-(1-propoxyethoxy)ethylbenzene] | – | – | pIC50 [2]: 3.72; Inhibition(%) [2]: 61% |
| CC(CCO)CCc1ccccc1 (stereo not drawn) [3-methyl-5-phenylpentan-1-ol] | – | – | pIC50 [2]: 2.96; Inhibition(%) [2]: 37% |
| CC(=O)OC(C)C1(C)CC(C)C23CCC(CC12)C3 (stereo not drawn) | – | – | pIC50 ([1]; Table 21): 4.26; Inhibition(%) ([1]; Table 21): 34% |
| CC1(CO)CC1CC1CC2CC2(C)C1(C)C (stereo not drawn) | – | – | pIC50 [2]: 4.67; Inhibition(%) [2]: 34% |
| C=CCC1(C(C)C=C)CCCC(C)(C)C1=O (stereo not drawn) [2-but-3-en-2-yl-6,6-dimethyl-2-prop-2-enylcyclohexan-1-one] | 4.12 | 115% | – |
| COC1C(C)(C)CCC12CC=CC2 (stereo not drawn) [9-methoxy-8,8-dimethylspiro[4.4]non-2-ene] | 3.62 | 100% | – |
| CC(C)CC(O)Cc1ccccc1 (stereo not drawn) [4-methyl-1-phenylpentan-2-ol] | – | – | pIC50 [2]: 3.29; Inhibition(%) [2]: 36% |
| COC(=O)CCCCCCCC/C=C/C=O [methyl (10E)-12-oxo-10-dodecenoate] | – | – | Inhibition(%) [2]: 86% |
| 4,10,10,11-tetramethylspiro[5.5]undec-2-en-11-ol; 5,10,10,11-tetramethylspiro[5.5]undec-3-en-11-ol | 4.33 | – | Inhibition(%) ([1]; Table 20, spiro analogues): 94% |
| C[C@@H]1CCCCCCCCCCCCC(=O)C1 [(−)-(3R)-3-methyl-1-cyclopentadecanone] | – | – | pIC50 ([1]; butyric acid at EC80, Table 5): 4.56 |
| C=CCC1(OC)C(C)CCCC1C (stereo not drawn) [1-methoxy-2,6-dimethyl-1-prop-2-enylcyclohexane] | 4.00 | 61% | – |
| CC1CCCCC12CCCCC2O (stereo not drawn) [11-methylspiro[5.5]undecan-5-ol] | 4.16 | 52% | – |
| CC1C=CCC12CCCC(C)(C)C2=O (stereo not drawn) [4,9,9-trimethylspiro[4.5]dec-2-en-10-one] | 3.57 | 102% | – |
| CC(=O)OC(C)C1CC(C)C23CCC(CC12)C3 (stereo not drawn) | – | – | pIC50 ([1]; Table 21): 4.01; Inhibition(%) ([1]; Table 21): 23% |
| C=C(C)CC1(CC(=C)C)CCC(C)(C)C1=O [2,2-dimethyl-5,5-bis(2-methylprop-2-enyl)cyclopentan-1-one] | 4.29 | 82% | – |
| C=C1C(C)(C)CCCC12CC1(C)OC1(C)C2 (stereo not drawn) [1,1′,1′,5-tetramethyl-2′-methylidenespiro[6-oxabicyclo[3.1.0]hexane-3,3′-cyclohexane]] | 4.12 | 37% | – |
| CC(=O)OC1C(C)(C)CCCC12CC(C)=CC2C (stereo not drawn) [(2,4,9,9-tetramethylspiro[4.5]dec-2-en-10-yl) acetate] | 4.46 | 131% | – |
| CC1(C)CCCC2(CC=CC2)C1=O [9,9-dimethylspiro[4.5]dec-2-en-10-one] | 3.87 | 23% | – |
| CC(=O)OC1C(C)(C)CCCC12CC=CC2 (stereo not drawn) [(9,9-dimethylspiro[4.5]dec-2-en-10-yl) acetate] | 4.04 | 32% | – |
| COC1CCCCCCCCCCC1 [Methoxycyclododecane] | – | – | pIC50 ([1]; butyric acid at EC80, Table 5): 4.08 |
| C=C(C)CC1(CC(=C)C)CCCC(C)(C)C1O (stereo not drawn) [2,2-dimethyl-6,6-bis(2-methylprop-2-enyl)cyclohexan-1-ol] | 3.90 | 110% | – |
| COC1C(C)(C)CCCC12CC=CC2 (stereo not drawn) [10-methoxy-9,9-dimethylspiro[4.5]dec-2-ene] | 3.92 | 33% | – |
| CC1CC2(CCCC(C)(C)C2O)CC1C (stereo not drawn) [2,3,9,9-tetramethylspiro[4.5]decan-10-ol] | 3.92 | 12% | – |

| Compound | pIC50 ([1]; Table 20, spiro analogues) | Emax ([1]; Table 20, spiro analogues) | other results |
| --- | --- | --- | --- |
| CCOCOC1CCCCCCCCCCC1 [(ethoxymethoxy)cyclododecane] | – | – | pIC50 ([1]; butyric acid at EC80, Table 5): 4.16 |
| CC(=O)OC1C(C)(C)CCCC12CC=C(C)CC2C (stereo not drawn) [(3,5,10,10-tetramethylspiro[5.5]undec-2-en-11-yl) acetate] | 4.15 | 104% | – |
| CC(=O)OC1C(C)(C)CCC12CC=CC2 (stereo not drawn) [(8,8-dimethylspiro[4.4]non-2-en-9-yl) acetate] | 3.31 | 107% | – |
| CC1=CC(C)C2(CCCC(C)(C)C2O)C1 (stereo not drawn) [2,4,9,9-tetramethylspiro[4.5]dec-2-en-10-ol] | 4.09 | 22% | – |
| CC(=O)[C@@]1(C)C(C)[C@H](C)[C@@]23CC[C@H](CC12)C3 (stereo partly drawn) | – | – | Inhibition(%) ([1]; Table 21): 27% |
| CC1C(C)C23CCC(CC2C1(C)C=O)C3 (stereo not drawn) | – | – | pIC50 ([1]; Table 21): 3.57; Inhibition(%) ([1]; Table 21): 28% |
| CC(=O)OC(C1CCCCC1C)C(C)(C)C (racemic) [(1RS)-2,2-dimethyl-1-[(1SR,2SR)-2-methylcyclohexyl]propyl acetate] | – | – | Inhibition(%) ([1]; Table 20, spiro analogues): 86% |
| COC1C(C)(C)CCC12CCCC2 (stereo not drawn) [4-methoxy-3,3-dimethylspiro[4.4]nonane] | 3.47 | 105% | – |
| CC1=C(C)CC2(CCCC(C)(C)C2OC=O)C1 (stereo not drawn) [(2,3,9,9-tetramethylspiro[4.5]dec-2-en-10-yl) formate] | 4.59 | 69% | – |
| CC1C=CCC(C)C1C(O)C(C)(C)C (stereo not drawn) [1-(2,6-dimethylcyclohex-3-en-1-yl)-2,2-dimethylpropan-1-ol] | 3.49 | 31% | – |
| CC(=O)OC(C1C(C)CC(C)CC1C)C(C)(C)C (stereo not drawn) [[2,2-dimethyl-1-(2,4,6-trimethylcyclohexyl)propyl] acetate] | 3.62 | 101% | – |
| CC1(C)CCCC2(CC=CC2)C1O (stereo not drawn) [9,9-dimethylspiro[4.5]dec-2-en-10-ol] | 4.36 | 91% | – |
| CC(=NO)C1(C)C(C)C(C)[C@]23CC[C@H](CC12)C3 (stereo partly drawn) | – | – | Inhibition(%) ([1]; Table 21): 81% |
| methyl 1-(3-methylbut-2-enyl)cyclohex-2-ene-1-carboxylate, methyl 1-(3-methylbut-2-enyl)cyclohex-3-ene-1-carboxylate, or mixtures thereof | 3.24 | – | Inhibition(%) ([1]; Table 20, spiro analogues): 38% |
| 2,4,8-trimethylspiro[5.5]undec-3-en-11-ol; 2,9,11-trimethylspiro[5.5]undec-9-en-5-ol | 3.93 | – | Inhibition(%) ([1]; Table 20, spiro analogues): 70% |
| CC1CC(C)(C=NO)C2C[C@H]3CC[C@]12C3 (stereo partly drawn) | – | – | Inhibition(%) ([1]; Table 21): 38% |
| 3,10,10-trimethylspiro[5.5]undec-3-en-11-ol; 4,10,10-trimethylspiro[5.5]undec-3-en-11-ol | < 3.22 | – | Inhibition(%) ([1]; Table 20, spiro analogues): 121% |
| CC1=CCC2(CCCCC2O)C(C(C)C)C1 (stereo not drawn) [3-methyl-5-propan-2-ylspiro[5.5]undec-2-en-11-ol] | 3.44 | 144% | – |
| CC(=NO)C1C(C)C(C)C23CCC(CC12)C3 (stereo not drawn) | – | – | pIC50 ([1]; Table 21): 4.12; Emax ([1]; Table 21): 19% |
| CC1CC=CCC12CCCC(C)(C)C2OC=O (stereo not drawn) [(5,10,10-trimethylspiro[5.5]undec-2-en-11-yl) formate] | 4.35 | 129% | – |
| CC(=O)C1(C)CC(C)C23CCC(CC12)C3 (stereo not drawn) | – | – | pIC50 ([1]; Table 21): 4.22; Inhibition(%) ([1]; Table 21): 26% |
| CC(=O)OC1C(C)(C)CCCC12CC=CC2C (stereo not drawn) [(4,9,9-trimethylspiro[4.5]dec-2-en-10-yl) acetate] | 4.31 | 106% | – |
| CC1=C(C)CC2(CCC(C)(C)C2=O)C1 [2,3,8,8-tetramethylspiro[4.4]non-2-en-9-one] | 3.70 | 10% | – |
| C[C@H]1CCC[C@]2(CCCC[C@@H]2C)[C@@H]1O | 4.11 | 54% | – |
| C=C(C)CC1(CC(=C)C)CCC(C)(C)C1O (stereo not drawn) [2,2-dimethyl-5,5-bis(2-methylprop-2-enyl)cyclopentan-1-ol] | 4.45 | 119% | – |
| CC(=O)OC(C1C(C)C=C(C)CC1C)C(C)(C)C (stereo not drawn) [[2,2-dimethyl-1-(2,4,6-trimethylcyclohex-3-en-1-yl)propyl] acetate] | 4.28 | 89% | – |
| CC(=O)OC1C(C)(C)CCCC12CC(C)(C)C(C)(C)C2 (stereo not drawn) [(2,2,3,3,9,9-hexamethylspiro[4.5]decan-10-yl) acetate] | 3.37 | 39% | – |
